# Literature values, collected in US20210161950A1, “Veterinary Supplement for Effecting Bone and Cartilage” (priority 2017, published 2021).
# How the values were obtained:
# [1] = test system: degenerated cartilage of the mandibular joint; settings: oral strontium
# osteoarthritis = settings: meta-analysis
smiles,measurement,setting,value
[Sr+2] [strontium],cartilage thickness and cell density,[1],increased cartilage thickness and cell density
same,expression of cartilage catabolic factors and pro-inflammatory cytokines,[1],decreased expression
same,expression of cartilage matrix molecules such as Collagen II and aggrecan,[1],increased expression
same,subchondral bone loss and mandibular condylar cartilage degradation,[1],reversed
N[C@H]1C(O)O[C@H](CO)[C@@H](O)[C@@H]1O.O=S(=O)(O)O (stereo partly drawn) [glucosamine sulfate],connective tissue surrounding bones,"bone fractures in rats; rats, after 4 weeks of 230 milligrams glucosamine sulfate daily",more cellular and vascular
same,"strength of newly formed, previously fractured bones","bone fractures in rats; rats, after 4 weeks of 230 milligrams glucosamine sulfate daily, compared to controls",stronger compared to controls
N[C@H]1C(O)O[C@H](CO)[C@@H](O)[C@@H]1O (stereo partly drawn) [glucosamine],mobility of joints,osteoarthritis,Improves mobility of joints
same,osteoarthritis progression,osteoarthritis,Reduces osteoarthritis progression
same,pain,osteoarthritis,Reduces pain
same,risk of total joint replacement,osteoarthritis,Reduces risk of total joint replacement
same,new bone formation and osteoblast lining,bone fractures in rats; glucosamine-treated rats compared to control groups,significantly higher
same,healing time of bone fractures,bone fractures in rats; rats,helped accelerate the healing time
